“Also recorded” adds a separate entry of the source.

The subject of assay [1] is soybean root suspension culture cells / soybean root tips. The experiment in a line: Binding and entry of fluorescent lipid-binding fusion proteins, soybean root cells. The settings on record: 1 mg/ml in 25 mM MES pH 5.8, 4° C., suspension culture cells 6 hr or root tips 12 hr. In kind it is cell-based. As for the experimental part:
B, Detection of PI-3-P but not PI-4-P on the surface of soybean cells. PEPP1-GFP or FAPP1-GFP proteins (1 mg/ml in 25 mM MES pH 5.8) were incubated with soybean root suspension culture cells for 6 hr or with soybean root tips for 12 hr at 4° C. then washed for 2 hr with 25 mM MES pH 5.8, then plasmolyzed with 0.8M Mannitol (suspension culture cells) or 4M NaCl (roots) for 30 minutes, before being photographed. Left panels show fluorescence image; right panels show the matching light micrograph. Plasma membranes are indicated by the white arrow heads.

The test system of the next assay is P. sojae hyphae. The experiment in a line: Binding and entry of fluorescent lipid-binding fusion proteins, P. sojae hyphae, confocal microscopy. It is filed as cell-based, Phytophthora sojae. As for the experimental part: A, Phosphatidylinositol-4-phosphate (PI-4-P) on the surface of P. sojae membranes mediates selective protein entry. Phosphatidylinositol-4-phosphate adaptor protein-1 (FAPP1)-mCherry, FAPP1-GFP, mCHerry alone or phosphatidylinositol-3-phosphate-binding PH-domain protein-1 (PEPP1)-GFP proteins (1 mg/ml) were incubated together with P. sojae hyphae for 12 hr, then washed extensively. Left panels show fluorescence image; right panels show the matching light micrograph.
To test for the presence of PI-3-P and PI-4-P on P. sojae hyphae, and the ability of those phosphoinositides to carry binding proteins into the hyphae, the pleckstrin-homology (PH) domains of the human proteins phosphatidylinositol-3-phosphate-binding PH-domain protein-1 (PEPP1) and phosphatidylinositol-4-phosphate adaptor protein-1 (FAPP1), respectively, were utilized (Dowler et al., 2000). […] To create biosensors capable of detecting PI-3P and PI-4-P in vivo, the PH domain of PEPP1 was fused to green fluorescent protein (GFP) and the PH domain of FAPP1 was fused to the modified red fluorescent protein, mCherry. (Sequences of the nucleic acids used for the production of these proteins, and the amino acid sequences corresponding to the same, are presented in FIGS. 6 A and B ([…]) and FIGS. 7 A and B (GST-FAPP1-mCherry. PEPP1-GFP and FAPP1-mCherry proteins (1 mg/ml in 25 mM 2-(N-morpholino)ethanesulfonic acid (MES) pH 5.8) were incubated with P. sojae hyphae for 6 hr at 25° C. then washed for 30 min with 25 mM MES pH 5.8, before being photographed using a Zeiss LSM510 laser scanning confocal microscope with an argon laser excitation wavelength of 488 nm for GFP or with a HeNe laser at a wavelength of 543 nm for mCherry.

Assay [2] has as its system Human lung adenocarcinoma cells A549. Description: Binding and entry of fluorescent lipid-binding fusion proteins, human lung cells. It is filed as cell-based. The settings on record: 1 mg/ml in DPBS. On the procedure:
C, Detection of PI-3-P but not PI-4-P on the surface of human lung cells PEPP1-mCherry or FAPP1-mCherry proteins [1 mg/ml in Dulbecco's Phosphate Buffer Saline (Ca^+2/Mg^+2 free) (DPBS; Gibco)] were incubated with Human lung adenocarcinoma cells A549 (ATCC CCL-185) for 8 hr at 4° C. or 37° C. then washed twice briefly with DPBS, before being photographed. Left panels show fluorescence image; right panels show the matching light micrograph. […] FIGS. 1B and C were adapted from FIGS. 3 and 5 respectively from Kale et al 2010. External lipid PI-3-P mediates entry of eukaryotic pathogen effectors into plant and animal host cells. Cell 142:284-295.

Setting [3] is: 1 mg/ml in 25 mM MES pH 5.8, 6 hr at 25° C., confocal microscopy.
Where [4] appears, read: hyphae stained simultaneously with PEPP1-GFP and FAPP1-mCherry.

On to “FAPP1-mCherry: PH domain of human FAPP1 (PI-4-P-binding) fused to the modified red fluorescent protein mCherry; SEQ ID NO: 8”, for which the “entry into soybean cells” value in assay [1] was “not”. In assay [1] (plasmolyzed), the “binding to the surface of soybean cells” value is “not”. In the assay with P. sojae hyphae (setting [3]), the “binding to the membrane of P. sojae hyphae” value is given as “bound to the membrane of P. sojae hyphae” and the “entry into P. sojae hyphae” value was “entered into the cells in abundance; also recorded: entered P. sojae hyphae”. For the same substance, in the assay on P. sojae hyphae (setting [4]), the “cellular entry, P. sojae hyphae” value is on record as “cellular entry” and the “membrane binding, P. sojae hyphae” value was “strong membrane binding”. Moreover, the “binding to the surface of human A549 cells” value in assay [2] (8 hr at 4° C. (endocytosis inhibited)) is “not and neither binds to the surface of the cells and does neither”. In assay [2] (8 hr at 37° C. (endocytosis active)), the “entry into human A549 cells” value is “not and nor enters the cells and does neither”.
